Tests used:
[1] = system: EWS-FLI1; assay: Immunoblot of EWS-FLI1 protein abundance in cells; assay type: cell-based, human
[2] = target: T1, OTUD7A-mediated deubiquitination of EWS-FLI1 (Homo sapiens, UniProt Q8TE49); assay: Ni-NTA pulldown ubiquitination assay in HEK293T cells; assay type: cell-based; settings: compound added 10 hrs prior to cell collection (FIG. 5C)
T1 construct: Myc-Flag; expressed in transfected cells; host or cells: HEK293T
Description: (§1) Cells were lysed in EBC buffer (50 mM Tris pH 7.5, 120 mM NaCl, 0.5% NP-40) or Triton X-100 buffer (50 mM Tris pH 7.5, 150 mM NaCl, 1% Triton X-100) supplemented with protease inhibitors (Complete Mini, Roche) and phosphatase inhibitors (phosphatase inhibitor cocktail set I and II, Calbiochem). The protein concentrations of whole cell lysates were measured by NanoDrop OneC using the Bio-Rad protein assay reagent as described previously. Equal amounts of whole cell lysates were resolved by SDS-PAGE and immunoblotted with indicated antibodies. For immunoprecipitations analysis, unless specified, 1000 μg lysates were incubated with the indicated antibody (1-2 μg) for 3-4 hr at 4° C. followed by 1 hr incubation with 10 μL Protein A magnetic beads (New England Biolabs). Or 1000 μg lysates containing tagged molecules were incubated with agarose beads coupled antibodies for the specific tag for 3-4 hr at 4° C. For endogenous IPs, incubation of cell lysates with antibodies was extended to overnight. The recovered immuno-complexes were washed five times with NETN buffer (20 mM Tris, pH 8.0, 100 mM NaCl, 1 mM EDTA and 0.5% NP-40) before being resolved by SDS-PAGE and immunoblotted with indicated antibodies.

[3] = target: T2, OTUD7B (Homo sapiens, UniProt Q6GQQ9); assay: Immunoblot of known OTUD7B substrates (mTORC2, APC/Cdh1); assay type: cell-based; settings: MHH-ES-1 or EWS894 cells, 12 hrs (FIG. 5E)
T2 construct: endogenous in cells; host or cells: MHH-ES-1, EWS894
T2 sequence (Q6GQQ9 whole entry): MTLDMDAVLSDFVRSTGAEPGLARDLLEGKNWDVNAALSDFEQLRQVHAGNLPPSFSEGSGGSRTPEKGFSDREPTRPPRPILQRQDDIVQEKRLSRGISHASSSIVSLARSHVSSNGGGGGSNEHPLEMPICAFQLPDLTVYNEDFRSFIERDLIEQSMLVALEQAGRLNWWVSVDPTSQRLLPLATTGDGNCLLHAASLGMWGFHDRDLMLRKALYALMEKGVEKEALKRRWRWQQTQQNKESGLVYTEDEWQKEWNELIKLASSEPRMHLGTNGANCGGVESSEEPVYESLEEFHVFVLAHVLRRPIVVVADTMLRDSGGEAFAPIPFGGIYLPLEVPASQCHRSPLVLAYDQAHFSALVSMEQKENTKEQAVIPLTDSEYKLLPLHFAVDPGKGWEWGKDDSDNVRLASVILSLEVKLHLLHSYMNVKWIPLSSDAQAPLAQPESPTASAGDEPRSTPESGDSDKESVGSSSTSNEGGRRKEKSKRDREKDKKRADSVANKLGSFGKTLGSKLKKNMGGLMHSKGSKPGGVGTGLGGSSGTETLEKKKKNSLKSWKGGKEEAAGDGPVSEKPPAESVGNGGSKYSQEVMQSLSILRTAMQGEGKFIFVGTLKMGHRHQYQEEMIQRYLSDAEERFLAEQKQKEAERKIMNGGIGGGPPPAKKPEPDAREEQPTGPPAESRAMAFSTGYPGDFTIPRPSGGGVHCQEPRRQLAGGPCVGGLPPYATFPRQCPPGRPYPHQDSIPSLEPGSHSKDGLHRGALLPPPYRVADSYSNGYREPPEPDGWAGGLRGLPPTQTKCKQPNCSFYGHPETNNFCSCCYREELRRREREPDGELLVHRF
Description: as §1

[4] = system: A673 cells; assay: Cell viability (MTT) assay, A673; assay type: cell-based, human; settings: A673, 3-day treatment
Description: (§2) 2,000 indicated cells were seeded in each well of 96-well plates for MTT assays to monitor cell viability at indicated time periods using a method adapted from https://www.thermofisher.com/us/en/home/references/protocols/cell-culture/mtt-assay-protocol/vybrant-mtt-cell-proliferation-assay-kit.html. Briefly, at indicated time points post-cell seeding, 10 μL MTT solution was added into each well and incubated in the culture incubator (37° C. with 5% CO2) for 4 hrs. Then medium was removed and 100 μL DMSO was added into each well to dissolve the formazan crystal and incubated for 10 min at 37° C. After thorough mixing, absorbance at 540 nm was measured using the BioTek Cytation 5 Cell Imaging reader.

[5] = system: MHH-ES-1 cells; assay: Cell viability (MTT) assay, MHH-ES-1; assay type: cell-based, human; settings: MHH-ES-1, 3-day treatment
Description: as §2

[6] = system: EWS894 cells; assay: Cell viability (MTT) assay, EWS894; assay type: cell-based, human; settings: EWS894, 3-day treatment
Description: as §2

[7] = system: A673 cells expressing EWS-FLI1-3A; assay: Growth of A673 cells expressing EWS-FLI1-3A; assay type: cell-based, human
Description: as §2

[8] = system: Jurkat cells; assay: Cell proliferation of Jurkat cells; assay type: cell-based, human
Description: as §2

[9] = system: MHH-ES-1 cells; assay: 2D colony formation assay, MHH-ES-1; assay type: cell-based, human; settings: MHH-ES-1, 2-week treatment (FIG. 5J)
Description: Indicated cells were seeded into 6-well plates (300 or 600 cells/well) or 6 cm dishes (500 or 1,000 cells/dish) and cultured in 37° C. incubator with 5% C02 for ˜14 days (as indicated in figure legends) until formation of visible colonies. Colonies were washed with 1×PBS and fixed with 10% acetic acid/10% methanol for 30 min, stained with 20% acidic acid/10% Methanol with 0.1% crystal violet until colonies were visibly stained. Colonies were then washed by tap water and air-dried. Colony numbers were manually counted. At least two independent experiments were performed to generate the error bars.

[10] = system: EWS-FLI1 mRNA; assay: RT-PCR of EWS-FLI1 mRNA levels; assay type: cell-based, human; settings: 7Ai treatment
Description: Cells were isolated by dissociation with 0.05% Trypsin, followed by media quenching. The cells were spun down at 300×rcf for 5 minutes. The media was aspirated, the pellet was suspended with 1×PBS, and then the cells were spun down again. The PBS was aspirated. RNA extraction was performed with an RNA extraction kit (BioBasic BS584). The final elution step was done with 50 μL of RNAse-free water. The […] with the NanoDrop OneC (Thermo Fisher Scientific). Three biological replicates were performed for RNA extraction. Quartile analysis was done to exclude outliers and significance was determined by one-way ANOVA tests.

[11] = system: A673 cells; assay: Transwell migration assay, A673; assay type: cell-based, human; settings: A673 cells in vitro
Description: 1×10^5 cells were plated in an […], 24-well plate chamber insert (Corning Life Sciences, catalog no. 3422) with serum free DMEM medium at the top of the insert and the same medium containing 20% fetal bovine serum (FBS) at the bottom of the insert. Cells were incubated for 24 hr and fixed with 4% paraformaldehyde for 15 min. After washing with PBS, cells at the top of the insert were scraped with a cotton swab. Cells adherent to the bottom were stained with 0.5% crystal violet blue for 60 min and then washed with double-distilled H2O (ddH2O). The positively stained cells were examined under the microscope.

[12] = system: FLI1; assay: Immunoblot of FLI1 proteins in normal control cells; assay type: cell-based, human; settings: HUVEC and FF cells, doses of 7Ai for 3 days
Description: as §1

T1 sequence (Q8TE49 whole entry): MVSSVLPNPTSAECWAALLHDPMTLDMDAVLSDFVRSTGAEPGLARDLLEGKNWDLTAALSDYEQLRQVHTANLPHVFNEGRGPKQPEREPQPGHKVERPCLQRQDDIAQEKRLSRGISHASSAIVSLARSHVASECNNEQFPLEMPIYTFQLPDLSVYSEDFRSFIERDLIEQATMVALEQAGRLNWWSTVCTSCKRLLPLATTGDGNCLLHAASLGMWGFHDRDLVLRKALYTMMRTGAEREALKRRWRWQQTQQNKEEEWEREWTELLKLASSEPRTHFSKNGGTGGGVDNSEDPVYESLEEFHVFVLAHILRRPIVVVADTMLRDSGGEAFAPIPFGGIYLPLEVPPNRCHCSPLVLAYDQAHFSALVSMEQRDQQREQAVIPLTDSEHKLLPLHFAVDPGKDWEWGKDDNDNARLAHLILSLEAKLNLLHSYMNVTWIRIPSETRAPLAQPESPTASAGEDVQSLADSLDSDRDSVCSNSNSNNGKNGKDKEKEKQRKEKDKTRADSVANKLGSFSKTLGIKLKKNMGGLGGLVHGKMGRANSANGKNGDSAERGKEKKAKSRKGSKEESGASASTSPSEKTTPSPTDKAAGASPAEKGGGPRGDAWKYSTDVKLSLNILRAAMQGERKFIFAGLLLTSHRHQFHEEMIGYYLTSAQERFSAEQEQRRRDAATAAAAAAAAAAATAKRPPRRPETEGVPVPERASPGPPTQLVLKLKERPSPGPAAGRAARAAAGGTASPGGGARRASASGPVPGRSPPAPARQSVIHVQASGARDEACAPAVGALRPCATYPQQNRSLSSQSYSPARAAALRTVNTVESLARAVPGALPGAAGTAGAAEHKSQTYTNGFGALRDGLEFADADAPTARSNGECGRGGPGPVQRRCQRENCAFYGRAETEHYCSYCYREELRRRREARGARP

Cn1nccc1-c1cc(-c2ccnn2C)n2nc(C(=O)Nc3cnn(Cc4c(Cl)cccc4Cl)c3)cc2n1 [7Ai]
EWS-FLI1 protein abundance ([1]; A673-teton-shOTUD7A cells): reduced EWS-FLI1 protein abundance in A673-teton-shOTUD7A
EWS-FLI1 protein abundance ([1]; A673 and MHH-ES-1 cells, doses of 7Ai for 3 days): efficiently reduced EWS-FLI1 protein abundance in both Ewing sarcoma cells
EWS-FLI1 protein levels ([1]; A673 and SK-N-MC cells, 10 μM, 12 hrs): reduced EWS-FLI1 protein levels in both Ewing cells
EWS-FLI1 protein levels, dose dependence ([1]; A673 cells, indicated doses, 12 hrs (FIG. 5B)): reduced EWS-FLI1 protein levels in a dose-dependent manner
EWS-FLI1 protein expression ([1]; MHH-ES-1, EWS894 (FIG. 5E, 12 hrs), SK-N-MC and EWS502 cells): efficiently reduced EWS-FLI1 protein expression
EWS-FLI1 protein abundance ([1]; parental A673 cells, 10 μM, 12 hrs (FIG. 5D)): reduced EWS-FLI1 protein abundance in parental A673
OTUD7A-mediated deubiquitination of EWS-FLI1 in cells [2]: efficiently blocked OTUD7A-mediated deubiquitination of EWS-FLI1
OTUD7B activities (known OTUD7B substrates mTORC2 and APC/Cdh1) [3]: did not significantly affect OTUD7B activities
proliferation (cell viability) [4]: reduced proliferation
proliferation (cell viability) [5]: reduced MHH-ES-1 proliferation
proliferation (cell viability) [6]: reduced proliferation
cell growth [7]: failed to significantly suppress growth
cell proliferation [8]: reduced cell proliferation of Jurkat cells
colony formation ability [9]: reduced colony formation ability
EWS-FLI1 mRNA levels [10]: did not affected EWS-FLI1 mRNA levels
cell migratory ability [11]: significantly reduced A673 cell migratory ability
FLI1 proteins [12]: minimal effects on FLI1 proteins
